The target of this experiment is T1, MscCAγ (Mammaliicoccus sciuri, UniProt A0AB37HNM1).
T1 construct: gene OWO77_11715
T1 sequence (A0AB37HNM1 1-169): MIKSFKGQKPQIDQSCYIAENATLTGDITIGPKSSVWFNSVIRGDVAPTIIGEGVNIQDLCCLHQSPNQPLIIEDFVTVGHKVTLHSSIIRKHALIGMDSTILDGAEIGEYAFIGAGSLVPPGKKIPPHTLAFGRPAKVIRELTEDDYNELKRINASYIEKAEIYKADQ
Nature of the experiment: stopped-flow CO2 hydration assay. In kind it is biochemical. Particulars: read-out: KI (mM)^a / McsCAγ.
As to `OB(O)c1ccccc1` [phenylboronic acid], the Ki is 0.9 mM.

As for `N#C[SeH]` [selenocyanide], the Ki worked out at 32.5 mM.

`CCN(CC)C(=S)S` [N,N-diethyldithiocarbamate]: the Ki turned out to be 0.5 mM.

Turning to `NS(N)(=O)=O` [sulfamide], the Ki came to 49.2 mM.

Take `NS(=O)(=O)O` [sulphamic acid]: the Ki is 25.2 mM.

Regarding `O=S(=O)(O)NS(=O)(=O)O` [iminodisulfonate], the Ki is 13.7 mM.

In the case of `[O]=[Re](=[O])(=[O])[OH]` [perrhenate], the Ki stood at 4.4 mM.

With `S=C(S)S` [trithiocarbonate], the Ki came to 0.07 mM.

On to `O=P(O)(O)OP(=O)(O)O` [pyrophosphate], for which the Ki is 0.8 mM.

Source of the values: publication PMC9891171, “Inhibition studies with simple and complex (in)organic anions of the γ-carbonic anhydrase from Mammaliicoccus (Staphylococcus) sciuri, MscCAγ” (Journal of Enzyme Inhibition and Medicinal Chemistry, 2023).
